Laboratory results as given in US20250127790A1, “COMBINATION THERAPY USING VPS34 INHIBITORS” (Deciphera Pharmaceuticals, LLC, priority 2021, published 2025).

Legend:
[1] = system: Renca renal cell carcinoma cells; assay: qRT-PCR, combination with ADU-S100, Renca cells; format: cell-based, Mouse; settings: for IFNB1 mRNA expression: 2 μM Compound 1, 10 μM ADU-S100, 4 h; for CCL5 mRNA expression / CXCL10 mRNA expression: 2 μM Compound 1, 10 μM ADU-S100, 24 h; for increase in IFNB1, CCL5 and CXCL10 with siRNA knockdown of STING: siSTING
Experimental: Renca cells were grown in RPMI-1640 medium containing 10% fetal bovine serum. Cells were then incubated for 2 days at 37 degrees Celsius, 5% CO2, and 95% humidity. Renca cells were reversely transfected with scrambled siRNA control (siSCR) or siRNA targeting STING (siSTING). After transfection for 48 h, cells were treated with DMSO control, 2 μM Compound 1 or 2 μM Compound 2 in combination with 10 μM ADU-S100 for 4 h (for Ifnb1) or 24 h (Ccl5 and Cxcl10). Cells were washed with PBS and RNA was isolated using the PureLink RNA kit (#12183018A, Thermo Fisher Scientific) according to the manufacturer's protocol. Genomic DNA was removed using DNA-binding columns (RNeasy plus kit, #74134, Qiagen) and/or DNase treatment (#12185010, Thermo Fisher Scientific). RNA was quantified using NanoDrop (Thermo Fisher Scientific) and 50 ng/μL RNA was used for cDNA synthesis with SuperScript IV VILO Master Mix (#11756050, Thermo Fisher Scientific). Quantitative RT-PCR (qRT-PCR) was run with diluted cDNA (1:25 or 1:12.5), PowerUp SYBR Green Master Mix (#A25741, Thermo Fisher Scientific), and 200 nM primers (see below) on a CFX Connect RT-PCR system (BioRad). Data was analyzed using the ΔΔCT method. Results are mean±SEM of three independent experiments.

[2] = system: 786-O renal cell carcinoma cells; assay: qRT-PCR with siRNA knockdown of STING pathway genes, 786-O cells; format: cell-based, Human; settings: 2 μM, 24 h
Experimental: Quantitative reverse-transcriptase polymerase chain reaction (RT-PCR) assay 786-O cells were grown in RPMI-1640 medium containing 10% fetal bovine serum. Cells were then incubated for 2 days at 37 degrees Celsius, 5% CO2, and 95% humidity. A498 cells were transfected with scrambled siRNA control (siSCR) or siRNA targeting TBK1 (siTBK1), STING (siSTING) or CGAS (siCGAS). After 48 h cells were treated with DMSO or 2 μM of VPS34 inhibitor (Compound 1 or Compound 2) for 24 h. Cells were washed with PBS and RNA was isolated using the PureLink RNA kit (#12183018A, Thermo Fisher Scientific) according to the manufacturer's protocol. Genomic DNA was removed using DNA-binding columns (RNeasy plus kit, #74134, Qiagen) and/or DNase treatment (#12185010, Thermo Fisher Scientific). RNA was quantified using NanoDrop (Thermo Fisher Scientific) and 50 ng/μL RNA was used for cDNA synthesis with SuperScript IV VILO Master Mix (#11756050, Thermo Fisher Scientific). Quantitative RT-PCR (qRT-PCR) was run with diluted cDNA (1:25 or 1:12.5), PowerUp SYBR Green Master Mix (#A25741, Thermo Fisher Scientific), and 200 nM primers (see below) on a CFX Connect RT-PCR system (BioRad). Data was analyzed using the ΔΔCT method. Results are mean±SEM of three independent experiments.

[3] = system: CT26 colorectal cancer cells; assay: Cytokine secretion assay, combination with cGAMP, CT26 cells; format: cell-based, mouse; settings: 24 hours, 5 μM Compound 1 or 10 μM Compound 2, 10 mg/mL cGAMP
Experimental: CT26 cells were treated for 24 hours with DMSO or VPS34 inhibitors (5 μM Compound 1 or 10 μM Compound 2) in combination with 10 mg/mL STING agonist cGAMP (green bars). Cells were washed with PBS and RNA was isolated using the PureLink RNA kit (#12183018A, Thermo Fisher Scientific) according to the manufacturer's protocol. Genomic DNA was removed using DNA-binding columns (RNeasy plus kit, #74134, Qiagen) and/or DNase treatment (#12185010, Thermo Fisher Scientific). RNA was quantified using NanoDrop (Thermo Fisher Scientific) and 50 ng/μL RNA was used for cDNA synthesis with SuperScript IV VILO Master Mix (#11756050, Thermo Fisher Scientific). Quantitative RT-PCR (qRT-PCR) was run with diluted cDNA (1:25 or 1:12.5), PowerUp SYBR Green Master Mix (#A25741, Thermo Fisher Scientific), and 200 nM primers (see below) on a CFX Connect RT-PCR system (BioRad). Data was analyzed using the ΔΔCT method. Results are mean±SEM of three independent experiments.
Cell culture medium was centrifuged at 1600 rpm for 10 min at 4° C. and obtained supernatant stored at −80° C. Cytokine levels were quantified using following Meso Scale Discovery (MSD) assays: mouse U-PLEX RANTES/CCL5 (#K152A2K) and U-PLEX IP-10/CXCL10 (#K152UFK). Assays were run on the SECTOR Quickplex Imager and analyzed using Discovery Workbench version 4.0 (MSD).

[4] = system: Renca renal cell carcinoma cells; assay: IncuCyte live-cell imaging, Caspase 3/7 activity, Renca cells; format: cell-based; settings: 2 μM Compound 1, ADU-S100, 24 hours
Experimental: Renca cells were treated with a combination of DMSO or 2 μM Compound 1 alone or in combination with STING agonist ADU-S100 for 24 hours. Treatment with 1 μM staurosporine was used as a positive control for apoptosis induction. To assess cell proliferation, 1000 cells/well were plated in 96-well plates. After 24 h, cells were treated with compounds in 100 μL complete medium. Phase-contrast images (10×) were acquired every 3 h for 24-72 h and cell confluence (%) was calculated using the IncuCyte S3 live-cell analysis system (Sartorius). For monitoring apoptosis, 5 μM of IncuCyte Caspase-3/7 Green Dye (#4440, Sartorius) was added to the medium at the time of treatment. Both phase-contrast and green fluorescent images were captured. Caspase 3/7 induction was calculated by counting green fluorescent objects per mm^2 and dividing it by the percentage of cell confluency.

SMILES	IFNB1 mRNA expression [1]	CCL5 mRNA expression [1]	CXCL10 mRNA expression [1]	increase in IFNB1, CCL5 and CXCL10 with siRNA knockdown of STING [1]	increase in mRNA expression of CCL5 [2] [fold]	increase in mRNA expression of CXCL10 [2] [fold]	increase in mRNA expression of IFNB1 [2] [fold]	increase in mRNA expression of IRF7 [2] [fold]	CCL5 protein secretion [3]	CXCL10 protein secretion [3]	Caspase 3/7 activity [4]
C[C@@H]1COCCN1c1cc(N2CCCC[C@@H]2C(F)(F)F)[nH]c(=O)c1 [Compound 1, 4-((R)-3-methylmorpholino)-6-((R)-2-(trifluoromethyl)piperidin-1-yl)pyridin-2(1H)-one]	did not significantly increase	did increase	did increase	blocked	> 3	~5	> 5	> 2	increased	increased	increased
C[C@@H]1COCCN1c1cc(=O)n2c(n1)N(Cc1cncc(Cl)c1)[C@H](C(F)(F)F)CC2 [Compound 2, (S)-9-((5-chloropyridin-3-yl)methyl)-2-((R)-3-methylmorpholino)-8-(trifluoromethyl)-6,7,8,9-tetrahydro-4H-pyrimido[1,2-a]pyrimidin-4-one]					~4	~5	~4	~3	increased	increased	
Nc1ncnc2c1ncn2[C@@H]1O[C@@H]2COP(=O)([S-])O[C@@H]3[C@H](O)[C@@H](COP([O-])(=S)O[C@H]2[C@H]1O)O[C@H]3n1cnc2c(N)ncnc21.[Na+].[Na+] (stereo partly shown) [ADU-S100, reference compound]	increased	increased	increased	blocked							mild effects
